Tested on: CLL cells (leukemic lymphocytes)
Assay: Assessment of mitochondrial membrane potential (CMXRos, flow cytometry)
Type: cell-based, human
Conditions: for mean percentage of cells with lower mitochondrial potential (ΔΨm^low/Gly-A^−): 1.6 μM
Text: Mitochondrial membrane potential is an early indicator of apoptosis. CMXRos, i.e. Chloromethyl-X-rosamine (the reagent's name by Mito Tracker Red CMXRos, Molecular Probes, USA), and a monoclonal antibody to glycophorin A conjugated with FITC (the reagent's name of Anti-Glycophorin A FITC by Dako, Denmark) were used for its assessment. CMXRos is a lipophilic cationic dye that accumulates in the mitochondrial matrix of viable cells when there is an electronegative load on the inner surface of the mitochondrial membrane. This asymmetric location of protons along the inner mitochondrial membrane leads to a high mitochondrial membrane potential (ΔΨm) in living cells. A decreased mitochondrial potential ΔΨm is one of the first symptoms of apoptosis during the process of induction, which results in lowering of the mitochondrial uptake of CMXRos.
The stock CMXRos solution was prepared by dilution of the substance supplied by the manufacturer in 94 μl DMSO (dimethylsulphoxide), and stored at […]. Then working solution was prepared also using DMSO (1:10) and stored at 4° C. Mononuclear cells, i.e. leukemic lymphocytes, at 1×10^6 MNCs/ml concentration, were incubated with CMXRos (2.5 μl working solution in 500 μl RPMI 1640 medium) at 37° C. for 30 minutes. […] The samples were next measured using flow cytometry. The percentage of cells not bound to anti-glycophorin A-FITC (ΔΨm^low/Gly-A^− cells), with low mitochondrial potential, was calculated.
All fluorescence measurements were performed by a flow cytometer FACSCalibur (Becton Dickinson, USA) equipped with an argon laser 488 nm and computer program CellQuestPro (Becton Dickinson, USA). Each time 10 000 cells were evaluated. The fluorescence was measured using standard emission filters: green—FL1 (wavelength λ=530±20 nm) and red—FL3 (>600 nm).

| Compound | mean percentage of cells with lower mitochondrial potential (ΔΨm^low/Gly-A^−) (24 h) [%] | mean percentage of cells with lower mitochondrial potential (ΔΨm^low/Gly-A^−) (48 h) [%] | apoptosis-inducing action (mitochondrial potential) compared with control (10 μg/ml, 24-hour cultures) |
| --- | --- | --- | --- |
| Nc1nc(F)nc2c1ncn2[C@@H]1O[C@H](CO)[C@@H](O)[C@@H]1O [FA, fludarabine] | 52.05 | 74.49 | – |
| rituximab | – | – | apoptosis-inducing action in order of spontaneous apoptosis |

From US20150320692A1 (UNIWERSYTET LÓDZKI, priority 2012, published 2015)
